Assay results published in patent publication US11591404B2, “Treatment of cancer using a CD123 chimeric antigen receptor” (Novartis AG, priority 2014, dated 2023).
Entries after “also recorded” stand apart in the source; their conditions may differ.

Legend:
[1] = test system: CAR-expressing, transduced T cells; experiment: Proliferation of CARTs co-cultured with Nalm-6 cells in the presence of RAD001, 4 days; format: cell-based; conditions: low doses of RAD001, cell culture, 4 days of co-culture
Method: CARTs were co-cultured with Nalm-6 cells in the presence of different concentrations of RAD001. The number of CAR-positive CD3-positive T cells (black) and total T cells (gray) was assessed after 4 days of co-culture.

[2] = test system: humanized CD19 CART cells; experiment: In vivo proliferation of humanized CD19 CART cells with and without RAD001 dosing; conditions: RAD001 0.003 mg/kg daily with huCTL019
Method: Circles denote PBS; squares denote huCTL019; triangles denote huCTL019 with 3 mg/kg RAD001; inverted triangles denote huCTL019 with 0.3 mg/kg RAD001; diamonds denote huCTL019 with 0.03 mg/kg RAD001; and circles denote huCTL019 with 0.003 mg/kg RAD001.

[3] = test system: huCART19 cells cultured with Nalm-6; experiment: CART proliferation in 4 day co-culture with RAD001; format: cell-based, human; conditions: 0.0032 and 0.016 nM RAD001
Method: To evaluate the functionality of CARTs, the T cells are thawed and counted, and viability is assessed by Cellometer. The number of CAR-positive cells in each culture is normalized using non-transduced T cells (UTD). The impact of RAD001 on CARTs was tested in titrations with RAD001, starting at 50 nM. The target cell line used in all co-culture experiments is Nalm-6, a human pre-B cell acute lymphoblastic leukemia (ALL) cell line expressing CD19 and transduced to express luciferase.
For measuring the proliferation of CARTs, T cells are cultured with target cells at a ratio of 1:1. The assay is run for 4 days, when cells are stained for CD3, CD4, CD8 and CAR expression. The number of T cells is assessed by flow cytometry using counting beads as reference.

NALM6-luc tumors = experiment: NALM6-luc tumor growth under daily oral RAD001; format: in vivo, NSG mice; conditions: daily oral dosing of RAD001 alone
Method: NALM6-luc cells: The NALM6 human acute lymphoblastic leukemia (ALL) cell line was developed from the peripheral blood of a patient with relapsed ALL. The cells were then tagged with firefly luciferase. These suspension cells grow in RPMI supplemented with 10% heat inactivated fetal bovine serum.
Mice: 6 week old NSG (NOD.Cg-Prkdc^scidIl2rg^tmIWjl/SzJ) mice were received from the Jackson Laboratory (stock number 005557).
Tumor implantation: NALM6-luc cells were grown and expanded in vitro in RPMI supplemented with 10% heat inactivated fetal bovine serum. The cells were then transferred to a 15 ml conical tube and washed twice with cold sterile PBS. NALM6-luc cells were then counted and resuspended at a concentration of 10×10^6 cells per milliliter of PBS. The cells were placed on ice and immediately (within one hour) implanted in the mice. NALM6-luc cells were injected intravenously via the tail vein in a 100 μl volume, for a total of 1×10^6 cells per mouse.
(§1) RAD001 dosing: A concentrated micro-emulsion of 50 mg equal to 1 mg RAD001 was formulated and then resuspended in D5W (dextrose 5% in water) at the time of dosing. Mice were orally dosed daily (via oral gavage) with 200 μl of the desired doses of RAD001.

[4] = PK analysis of RAD001 in tumor bearing mice; format: in vivo, NSG mice
Method: as §1
PK analysis: Mice were dosed daily with RAD001 starting 7 days post tumor implantation. Dosing groups were as follows: 0.3 mg/kg, 1 mg/kg, 3 mg/kg, and 10 mg/kg. Mice were bled on days 0 and 14 following the first and last dose of RAD001, at the following time points for PK analysis: 15 minutes, 30 minutes, 1 hour, 2 hours, 4 hours, 8 hours, 12 hours, and 24 hours.

huCAR19 CAR T cells = experiment: CAR T cell expansion in vivo with RAD001 (FACS); parameters: species or system NSG mice; conditions: lowest doses of RAD001
Method: CAR T cell dosing: Mice were administered 5×10^6 CAR T cells 7 days after tumor implantation. Cells were partially thawed in a 37 degree Celsius water bath and then completely thawed by the addition of 1 ml of cold sterile PBS to the tube containing the cells. The thawed cells were transferred to a 15 ml falcon tube and adjusted to a final volume of 10 mls with PBS. The cells were washed twice at 1000 rpm for 10 minutes each time and then counted on a hemocytometer. T cells were then resuspended at a concentration of 50×10^6 CAR T cells per ml of cold PBS and kept on ice until the mice were dosed. The mice were injected intravenously via the tail vein with 100 μl of the CAR T cells for a dose of 5×10^6 CAR T cells per mouse. Eight mice per group were treated either with 100 μl of PBS alone (PBS), or humanized CD19 CAR T cells.
as §1
Based on these doses, huCAR19 CAR T cells were dosed with and without RAD001 to determine the proliferative ability of these cells. The highest dose used was 3 mg/kg based on the levels of RAD001 in the blood 24 hours after dosing. […] Mice were monitored via FACS for T cell expansion.

CART123P2A CD20 cells = experiment: Rituximab-mediated cytotoxicity, T cell depletion; format: cell-based; conditions: 100 ug/ml, 48 hours of incubation
Method: Rituximab-mediated cytotoxicity was next assessed for the CART123 P2A CD20 cells. CART123 and CART123 P2A CD20 were incubated with Rituximab at various concentrations, 0 μg/ml, 1 μg/ml, 10 μg/ml and 100 μg/ml. Cells were harvested at 0, 4, 12, and 48 hours, and stained for CD3. The percentage of T cell depletion was computed.

CART123 P2A CD20 cells = experiment: Rituximab complement dependent cytotoxicity (15% rabbit complement); format: cell-based
Method: The mechanism by which the CART123P2ACD20 cell depletion is mediated was investigated. CART123 P2A CD20 cells were incubated with rituximab at different concentrations 0 μg/ml, 1 μg/ml, 10 μg/ml and 100 μg/ml, in the presence of 15% rabbit complement. […] CART123 P2A CD20 cell depletion is mediated by complement dependent cytotoxicity.

[5] = test system: luciferase-expressing human AML cell lines (MOLM14, MOLM13, U937) or primary AML specimens; experiment: Human AML xenograft models, T cell termination strategies; format: in vivo, mice; conditions: for elimination of CD123-redirected CAR T cells: alemtuzumab 1 or 5 mg/kg IP, rituximab 10 mg/kg IP; for AML proliferation, antibody alone: non-CART123-treated xenograft models vs AML-only controls
Text: Three termination strategies in human AML xenograft models were examined: (1) T cell ablation with the anti-CD52 antibody alemtuzumab after treatment with 1×10^5-1×10^6 T cells lentivirally-transduced with anti-CD123-41BB-CD3zeta CART123, (2) T cell ablation with the anti-CD20 antibody rituximab after treatment with 1×10^5-1×10^6 CART123 engineered to co-express CD20 (CART123/CD20), and (3) treatment with “biodegradable” anti-CD123 mRNA-electroporated CAR T cells (RNA-CART123). Mice engrafted with luciferase-expressing human AML cell lines (MOLM14, MOLM13, U937) or primary AML specimens (n=3) were treated with CD123-redirected CAR T cells as above. The CD123 CAR construct utilized for this experiment is the 1172 construct (SEQ ID NO: 707), and were administered to the mice at week 1. For T cell depletion studies, alemtuzumab 1 or 5 mg/kg was injected intraperitoneally (IP) at week 2, week 3, or week 4 (e.g., 1, 2, or 3 weeks post-CART123) to determine optimal dosing and timing of T cell ablation. In subsequent studies, rituximab 10 mg/kg was injected IP 4 weeks after CART123/CD20, or 1×10^7 RNA-CART123 was injected intravenously at 5, 9, and 16 days after AML engraftment. Mice were followed by weekly bioluminescent imaging and/or quantitative flow cytometry analyses of blood, spleen, and/or bone marrow.

AML290 cells = experiment: Pediatric patient-derived xenograft model; format: in vivo, mice
Method: Alemtuzumab treatment was also examined in a second in vivo model, a pediatric patient-derived xenograft model. In this model, mice were injected with AML290 cells. Six weeks after AML engraftment, the mice were administered saline, untransduced T cells, or CART123 cells (represented at week 0). Alemtuzumab was administered at 5 mg/kg to a subset of the mice receiving CART123 cells at week 4. […] Analysis of AML present in different organs of the xenografts after CART123 dosing was determined by flow cytometry.

r/r B-ALL = conditions: cited from earlier work

CO[C@H]1C[C@@H]2CC[C@@H](C)[C@@](O)(O2)C(=O)C(=O)N2CCCC[C@H]2C(=O)O[C@H]([C@H](C)C[C@@H]2CC[C@@H](OCCO)[C@H](OC)C2)CC(=O)[C@H](C)/C=C(\C)[C@@H](O)[C@@H](OC)C(=O)[C@H](C)C[C@H](C)/C=C/C=C/C=C/1C [RAD001, (1R,9S,12S,15R,16E,18R,19R,21R,23 S,24E,26E,28E,30S,32S,35R)-1,18-dihydroxy-12-{(1R)-2-[(1S,3R,4R)-4-(2-hydroxyethoxy)-3-methoxycyclohexyl]-1-methylethyl}-19,30-dimethoxy-15,17,21,23,29,35-hexamethyl-11,36-dioxa-4-aza-tricyclo[30.3.1.04,9]hexatriaconta-16,24,26,28-tetraene-2,3,10,14,20-pentaone]
proliferation of CAR-expressing, transduced T cells [1]: enhanced | CART cell proliferation in vivo [2]: enhancement in CART cell proliferation | proliferation of huCART19 cells [3]: proliferation was higher than observed without the addition of RAD001 | growth of NALM6-luc tumors (NALM6-luc tumors): did not have an impact on the growth of NALM6-luc tumors | concentration of RAD001 ([4]; 24 hours after the final dose): above 10 nM | concentration at 24 h ([4]; NSG, mouse, blood, oral, 24 hours after dosing, 0.3 mg/kg, day 0 and day 14, read-out: RAD001 concentrations in the blood): > 10 nM | stability in the blood ([4]; tumor bearing mice): fairly stable in the blood | proliferation of the CAR T cells in vivo (huCAR19 CAR T cells): enhanced proliferation of the CAR T cells

Rituximab: anti-CD20 antibody
T cell depletion (CART123P2A CD20 cells): direct cytotoxicity | cell depletion with complement (CART123 P2A CD20 cells; Rituximab 100 ug/ml): depletion of the majority of CART123 P2A CD20 cells after 4 hours of incubation | cell depletion with complement (CART123 P2A CD20 cells; rituximab 1 ug/ml or 10 ug/ml): depletion of the majority of CART123 P2A CD20 cells after 12 hours of incubation | elimination of CD123-redirected CAR T cells [5]: rapidly eliminated T cells while preserving leukemia remission; also recorded: completely eliminated CD123-redirected CAR T cells | AML proliferation, antibody alone [5]: did not inhibit AML proliferation

alemtuzumab: anti-CD52 antibody
elimination of CD123-redirected CAR T cells [5]: rapidly eliminated CART123 cells | elimination of CD123-redirected CAR T cells ([5]; listed as Alemtuzumab): completely eliminated CD123-redirected CAR T cells | overall survival by timing of ablation ([5]; alemtuzumab at week 3 or week 4 vs week 2): improved survival | AML proliferation, antibody alone [5]: did not inhibit AML proliferation | AML cells in spleen and bone marrow (flow cytometry) (AML290 cells; AML290): sustained ablation of AML cells in the spleen | tumor progression / remission (AML290 cells; AML290): remained in remission | elimination of CART123 T cells in the peripheral blood (AML290 cells; alemtuzumab 5 mg/kg at week 4): completely eliminate CART123 T cells in the peripheral blood

blinatumomab: bi-specific anti-CD19/CD3 antibody
share of relapses that are CD19-negative (r/r B-ALL): about 30%
